Results on 10 compounds are retold here after US20260109695A1, “PEROXIREDOXIN 3 INHIBITORS AND METHODS OF USE FOR TREATING CANCER” (WAKE FOREST UNIVERSITY HEALTH SCIENCES, priority 2022, published 2026).

≈ marks a conversion by molar mass, not a printed value. Bounds are passed on as bounds.

Data set [1] deals with human SK-OV-3 ovarian cancer cells. The data set can be described thus: Cellular Activity Assay (cytotoxicity, crystal violet). Type of data set: cell-based. Particulars: SK-OV-3 cells, 48 hr treatment. The source says: (§1) To test the activity of compounds, two complimentary assays were used as described below. The Biochemical PRX3 Inhibition Assay tests the ability of each compound to crosslink PRX3 in a simple, in vitro system. In the Cellular Activity Assay, we are testing the ability of compounds to kill SK-OV-3 ovarian cancer cells.
The Cellular Activity Assay measures the EC50 of each compound in human SK-OV-3 ovarian cancer cells TS to be taken into the cell, transported to the mitochondria, and crosslink PRX3.
The cytotoxicity of compounds was measured as described in Nelson et al. (2021) Antioxidants (Basel) 10, 150; Cunniff et al. (2015) PloS one 10, e0127310; and Newick et al. (2012) PloS one 7, e39404. SK-OV-3 is an adherent, epithelial, adenocarcenoma cell line obtained from ATCC (ref #: HTB-77). SK-OV-3 cells are resistant to the commonly used chemotherapeutics, cis-platinum and doxorubicin. For this PRX3 crosslinking assay, SK-OV-3 cells were plated in a 96-well plate. After 24 h recovery, the cells were treated for 48 hr with multiple concentrations of each compound ranging from 0.1-100 μM.
Cells were washed with PBS to remove dead cells and the remaining live cells were fixed with 3.0% formaldehyde and stained with 0.1% crystal violet. The amount of crystal violet was determined by reading the absorbance at 540 nm (crystal violet dye dissolved in 100% methanol) using a plate reader. The signal for crystal violet dye is proportional to the biomass of remaining live cells. GraphPad Prism9 software was used to calculate the effective inhibitory concentration (EC50) of test compounds. Results for each compound, are normalized to the amount of cells in control wells treated with the equivalent concentration of DMSO (negative control). TS or Compound B were included in each set of assays as a positive control.

Data set [2] concerns the target T1, purified human PRX3 (Homo sapiens, UniProt P30048).
T1 construct: made in house
T1 sequence (P30048 62-256): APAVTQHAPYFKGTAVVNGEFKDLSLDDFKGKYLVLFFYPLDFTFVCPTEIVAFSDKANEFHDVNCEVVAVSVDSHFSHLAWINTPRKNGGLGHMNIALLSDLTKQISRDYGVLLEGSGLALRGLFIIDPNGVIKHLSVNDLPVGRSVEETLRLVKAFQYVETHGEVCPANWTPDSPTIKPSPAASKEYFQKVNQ
In words: Biochemical PRX3 Inhibition Assay (crosslink by SDS-PAGE, mono-adduct by MALDI-TOF MS). Conditions: 1-2 hr at 37° C. On the procedure: as §1
This assay tests the ability of each compound to form a covalent adduct with PRX3. The assay is performed as described in Nelson et al. (2021) Antioxidants (Basel) 10, 150; and Cunniff et al. (2015) PloS one 10, e0127310, and follows the appearance of non-reducible PRX3 crosslinks by SDS PAGE gel electrophoresis and follows the appearance of single PRX3 adducts by mass spectrometry. For this assay, purified human PRX3, hydrogen peroxide (the PRX3 substrate) and all the components required to enable PRX3 to catalytically cycle (thioredoxin-thioredoxin reductase-NAPDH system) are included (details below).
The biochemical PRX3 Inhibition assay contains 100 µM PRX3, 50 µM human TRX2, […] mouse thioredoxin reductase, and a NADPH regenerating system composed of 3.2 mM glucose 6-phosphate, 3.2 U/ml glucose 6-phosphate dehydrogenase and 0.4 mM NADPH. Samples are incubated for 1-2 hr at 37° C. with either 0.2 mM TS (positive control), compounds or an equivalent volume of DMSO (negative control). During this incubation, hydrogen peroxide is added to induce turnover of PRX3. Reactions are stopped by the addition of a buffer containing 100 mM dithiolthreitol (to break disulfide bonds) and SDS (detergent to denature proteins). NADPH, Glucose 6-Phosphate, and glucose 6-phosphate dehydrogenase were purchased from Sigma Aldrich. PRX3, thioredoxin, and thioredoxin reductase were all purified to >98% purity in the Lowther laboratory according to protocols referenced in Nelson et al. (2021) Antioxidants (Basel) 10, 150; and Cunniff et al. (2015) PloS one 10, e0127310.
To measure the amount of PRX3 crosslink, proteins in the reaction were separated by SDS-polyacrlyamide gel electrophoresis and stained for total protein using GelCode Blue (Life Technologies). The amount of unmodified PRX3 and TS-PRX3 crosslink was measured by densiometric analysis of the signal for the PRX3 band running at the MW of a PRX3 crosslink (−46 kDa) compared to the PRX3 signal at the MW of the un-modified PRX3 (˜23 kD).
To measure covalent adduct formation on a single PRX3 monomer, each reaction was exchanged into a mass spectrometry compatible buffer containing 40 mM ammonium citrate, pH 8.3 made in HPLC water. Sample was mixed 1:1 with a matrix solution containing 30 mg/mL sinapinic acid in 70% (vol/vol) acetonitrile, 0.2% formic acid and spotted to onto the sample plate. PRX3 mass was measured by MALDI-TOF MS analysis on a Bruker Daltonics MALDI-TOF MS spectrometer. Spectra were analyzed in FLEXAnalysis Software. The intensity of the reduced PRX3 peak (SH) and intensity of the analog adduct peak was determined and corrected for background signal at the adduct peak in the DMSO control. The fraction of single analog adduct in the monomer peak was determined by dividing the intensity of the adduct peak by the summed intensity of the SH and adduct peaks.

Data set [3] in a line: Solubility Assay. The class given is physicochemical. Conditions: 100 mM NaCl buffer, aqueous with cosolvent or surfactant or cyclodextrin, kinetic from dmso stock, 20 mM HEPES, pH 7.5, 18-24 hours at ambient temperature, read-out: Solubility. The method, then: A 20 mM stock solution was made for each compound in DMSO. To measure solubility, 0.03-0.05 mL of the stock was added to 0.27 mL 20 mM HEPES, 100 mM NaCl, pH 7.5. The solution was mixed and rotated 18-24 hours at ambient temperature. The next day, solutions were centrifuged for 10 min at 20,000×g at 24° C. to remove insoluble, solid material. Next, 100 μL of the supernatant containing the soluble compound was added to 900 μL DMSO and High Performance Liquid Chromatography was performed as described in Table 1 and either HPLC gradient 1 (Table 2) for HPLC gradient 2 (Table 3). For each analog, a 200 μM standard and a 20 μM standard were prepared and run in parallel (standards were dissolved completely in 100% DMSO). The amount of compound in the experimental sample was calculated by comparing the area under the curve for compound peak to the area for the closest standard and correcting for dilution.

Data set [4] relates to Enterococcus hirae (ATCC #10541). In words: Antimicrobial Activity Assay. Particulars: Enterococcus hirae, minimal inhibitory concentration; for MIC: ATCC10541, read-out: Antimicrobial Activity. Type of data set: cell-based. On the procedure: The overnight growth was then diluted into growth media to make a single solution of E. hirae with a final optical density at 600 nm=0.02 AU. A 20 mM stock solution of Thiostrepton in DMSO was made and used to make multiple dilutions of TS in DMSO. Each TS dilution (0.1 mL) was then added to a test tube containing 10 mL of the diluted E. hirae and grown at 37° C. overnight while shaking at 180 rpm. The next morning, each tube was visually inspected to determine if the cells grew. Final concentrations tested were 0.120, 0.090, 0.075, 0.060, 0.045, 0.030, and 0.015 μM TS. […] Three replicates were made on three separate days (n=9). […] For TS analogs, the dilute E. hirae was treated with 20 µM final concentration of each analog (three replicates each). […] DMSO was used as a positive control (complete cell growth) and 20 µM thiostrepton was used as a negative control.

A word on the EC50: it is the concentration at which the effect is half-maximal. Higher therefore signals a need for much substance. The term solubility denotes the dissolved amount per volume that the medium holds. In data set [1], `C=C(NC(=O)c1csc(N2CCC(NC(=O)OC(C)(C)C)CC2)n1)C(=O)NC(=C)C(=O)N1CCCCC1` [Compound 1, Tert-butyl (1-(4-((3-oxo-3-((3-oxo-3-(piperidin-1-yl)prop-1-en-2-yl)amino)prop-1-en-2-yl)carbamoyl)thiazol-2-yl)piperidin-4-yl)carbamate] had an EC50 of 10 to 25 µM. Besides, in data set [2], the “PRX3 Inhibition (Crosslink + Mono-adduct)” value (from here on “PRX3 Inhibition”) is recorded as “+++ (>90%)”. Besides, the solubility in data set [3] is less than 100 µM. In data set [4], the MIC is more than 20 µM.

On to `C=C(NC(=O)c1csc(N2CCC(NC(=O)OC(C)(C)C)CC2)n1)C(=O)NC(=C)C(=O)OCc1ccccc1` [Compound 2, Benzyl 2-(2-(2-(4-((tert-butoxycarbonyl)amino)piperidin-1-yl)thiazole-4-carboxamido)acrylamido)acrylate], for which the EC50 in data set [1] is 1 to 10 µM. Besides, the “PRX3 Inhibition” value in data set [2] was “++ (50-90%)”. The solubility in data set [3] was less than 100 µM. For the same compound, in data set [4], the MIC is more than 20 µM.

`C=C(NC(=O)c1csc(N2CCC(NC(=O)OC(C)(C)C)CC2)n1)C(=O)NC(=C)C(=O)OCCOC` [Compound 3, 2-Methoxyethyl 2-(2-(2-(4-((tert-butoxycarbonyl)amino)piperidin-1-yl)thiazole-4-carboxamido)acrylamido)acrylate]: in data set [1], the EC50 was in the range of 10 to 25 µM. Also, in data set [2], the “PRX3 Inhibition” value is given as “+++ (>90%)”. For the same compound, the solubility in data set [3] was in the range of 100 to 1000 µM (≈ 52.4 to 524 µg/mL). Also, the MIC in data set [4] is more than 20 µM.

In data set [1], `C=C(NC(=O)C(=C)NC(=O)c1csc(N2CCC(NC(=O)OC(C)(C)C)CC2)n1)C(=O)NCCOC` [Compound 4, Tert-butyl (1-(4-((3-((3-((2-methoxyethyl)amino)-3-oxoprop-1-en-2-yl)amino)-3-oxoprop-1-en-2-yl)carbamoyl)thiazol-2-yl)piperidin-4-yl)carbamate] registered an EC50 of 10 to 25 µM. Moreover, the “PRX3 Inhibition” value in data set [2] is given as “+++ (>90%)”. The solubility in data set [3] was 100 to 1000 µM (≈ 52.3 to 523 µg/mL). Also, in data set [4], the MIC was more than 20 µM.

The compound `C=C(NC(=O)c1csc(N2CCC(NC(=O)OC(C)(C)C)CC2)n1)C(=O)NC(=C)C(=O)OC1CCOCC1` [Compound 5, Tetrahydro-2H-pyran-4-yl 2-(2-(2-(4-((tert-butoxycarbonyl)amino)piperidin-1-yl)thiazole-4-carboxamido)acrylamido)acrylate] had an EC50 in data set [1] of 1 to 10 µM. For the same compound, the “PRX3 Inhibition” value in data set [2] is on record as “+++ (>90%)”. Further, in data set [3], the solubility is less than 100 µM. For the same compound, the MIC in data set [4] is more than 20 µM.

In data set [1], `C=C(NC(=O)c1csc(N2CCC(NC(=O)OC(C)(C)C)CC2)n1)C(=O)NC(=C)C(=O)OCC1CCOCC1` [Compound 6, (Tetrahydro-2H-pyran-4-yl)methyl 2-(2-(2-(4-((tert-butoxycarbonyl)amino)piperidin-1-yl)thiazole-4-carboxamido)acrylamido)acrylate] gave an EC50 of 1 to 10 µM. Moreover, in data set [2], the “PRX3 Inhibition” value was “+++ (>90%)”. Besides, the solubility in data set [3] is less than 100 µM. In addition, the MIC in data set [4] was more than 20 µM.

Compound `C=C(NC(=O)c1csc(N2CCC(NC(=O)OC(C)(C)C)CC2)n1)C(=O)NC(=C)C(=O)N(C)CCOC` [Compound 7, Tert-butyl (1-(4-((3-((3-((2-methoxyethyl)(methyl)amino)-3-oxoprop-1-en-2-yl)amino)-3-oxoprop-1-en-2-yl)carbamoyl)thiazol-2-yl)piperidin-4-yl)carbamate] had a 50% effective concentration (EC50) in data set [1] of 25 to 100 µM. Also, the “PRX3 Inhibition” value in data set [2] was “+++ (>90%)”. Further, the solubility in data set [3] was in the range of 100 to 1000 µM (≈ 53.7 to 537 µg/mL). The MIC in data set [4] is more than 20 µM.

As for `C=C(NC(=O)c1csc(N2CCC(NC(=O)OC(C)(C)C)CC2)n1)C(=O)NC(=C)c1nnc(C2CCOCC2)o1` [Compound 8, Tert-butyl (1-(4-((3-oxo-3-((1-(5-(tetrahydro-2H-pyran-4-yl)-1,3,4-oxadiazol-2-yl)vinyl)amino)prop-1-en-2-yl)carbamoyl)thiazol-2-yl)piperidin-4-yl)carbamate], the EC50 in data set [1] was 10 to 25 µM. Also, in data set [2], the “PRX3 Inhibition” value is given as “+++ (>90%)”. Moreover, in data set [3], the solubility is less than 100 µM. In addition, the MIC in data set [4] was more than 20 µM.

In the case of `C=C(NC(=O)c1csc(N2CCC(NC(=O)OC(C)(C)C)CC2)n1)C(=O)NC(=C)C(=O)OC` [Compound A, Methyl 2-(2-(2-(4-((tert-butoxycarbonyl)amino)piperidin-1-yl)thiazole-4-carboxamido)acrylamido)acrylate, reference compound], in data set [3], the solubility was less than 100 µM. Besides, the “Antimicrobial Activity” value in data set [4] is on record as “− (>20 μM)”.

On to `C=C(NC(=O)c1csc(-c2ccc(NC(=O)CCCCCBr)cc2)n1)C(=O)NC(=C)C(=O)OC` [Compound B, Methyl 2-(2-(2-(4-(6-bromohexanamido)phenyl)thiazole-4-carboxamido)acrylamido)acrylate, reference compound], for which the solubility in data set [3] was less than 100 µM.
